This passage reports Ki results from patent publication US8481738B2, “Gonadotropin-releasing hormone receptor antagonists and methods relating thereto” (Neurocrine Biosciences, Inc., priority 2007, dated 2013).

The assay concerns the target T1, human GnRH receptor (Homo sapiens, UniProt P30968).
T1 construct: expressed in transfected cells; host or cells: RBL cells, stably transfected (in general)
T1 sequence (P30968 1-328): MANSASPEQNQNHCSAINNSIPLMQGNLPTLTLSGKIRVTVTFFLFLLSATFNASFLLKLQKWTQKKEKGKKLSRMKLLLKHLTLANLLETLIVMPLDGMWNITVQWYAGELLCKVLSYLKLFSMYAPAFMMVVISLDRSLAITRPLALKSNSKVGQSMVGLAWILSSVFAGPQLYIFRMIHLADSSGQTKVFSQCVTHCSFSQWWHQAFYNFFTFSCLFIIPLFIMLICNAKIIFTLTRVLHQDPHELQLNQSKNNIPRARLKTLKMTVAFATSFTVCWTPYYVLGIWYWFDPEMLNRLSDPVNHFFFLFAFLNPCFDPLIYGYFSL
Briefly: Peptide competition radioligand binding displacement assay, human GnRH receptor membranes. To be noted: one or more of the peptide competition human receptor binding assays. How it is done: cDNA's of human, rhesus macaque, rabbit, dog and rat GnRH receptors are cloned into pcDNA3.1 (+) (Invitrogen). Full length sequences of all receptors are confirmed by DNA sequencing. HEK 293, CHO, COS-7, or rat basophilic leukemia (RBL) cells are stably transfected with human, rat, or macaque GnRH receptors and high expressing single cell clones (Bmax≧0.4 pMol/mg membrane protein) are isolated and maintained in Dulbecco's Modified Eagles Medium (DMEM) with following supplements: 10 mM HEPES; 2 mM L-glutamine; 1 mM Sodium Pyruvate; 50 U/mL penicillin, 50 μg/mL streptomycin; 10% Heat-inactivated Fetal Bovine Serum and 200 μg/mL Geneticin (G-418-Sulfate). Non-essential amino acids (0.1 mM) (Irvine Scientific; Santa Ana, Calif.) are included in the RBL cell media.
In general, initial peptide radioligand binding assays are carried out using membranes from stably transfected RBL cells. RBL stable clones are found to more consistently express high levels of GnRH receptor and are therefore used for subsequent binding studies as well as Ca^++ flux and inositol phosphate accumulation assays. Transiently transfected COS-7 cells are used for preparation of membranes containing GnRH receptors from multiple species (as well as those of mutant receptors for other studies) because of the convenience for rapidly analyzing multiple receptors.
HEK293 cells stably transfected with the human GnRH receptor are grown for two days after achieving confluence then are harvested by striking tissue culture flasks against a firm surface. Cells are collected by centrifugation at 1000 g for 5 minutes. Cell pellets are resuspended in 5% sucrose and homogenized using a polytron homogenizer for two 15 second homogenization steps. Cell homogenates are then centrifuged for 5 minutes at 3000 g to remove nuclei and the supernatant subsequently centrifuged for 30 minutes at 44,000 g to collect the membrane fraction. The membrane pellet is resuspended in GnRH binding buffer (10 mM HEPES, pH 7.5, 150 mM NaCl and 0.1% BSA) and aliquots immediately snap-frozen in liquid nitrogen and stored at −80° C. Protein content of the membrane suspension is determined using the Bio-Rad protein assay kit (Bio-Rad).
RBL cells stably transfected with the human GnRH receptor are grown to 80% confluency prior to harvesting. The cells are incubated at 37° C. for 10 min in 0.5 mM EDTA/PBS (Ca^++, Mg^++ free), and are dislodged from the plate by gentle rapping of the flasks. Cells are collected and pelleted by centrifugation at 1000 g for 5 minutes. Cell pellets are resuspended in buffer (DPBS supplemented with 10 mM MgCl2, 2 mM EGTA, pH=7.4), and cell lysis is performed using a pressure cell and applying N2 at a pressure of 900 psi for 30 min at 4° C. Unbroken cells and larger debris were removed by centrifugation at 1200 g for 10 min at 4° C. The cell membrane supernatant is then centrifuged at 45,000 g and the resulting membrane pellet is resuspended in assay buffer and homogenized on ice using a tissue homogenizer. Protein concentrations are determined using the Coomassie Plus Protein Reagent kit. Membranes are aliquoted and stored at −80° C. until ready for use.
COS-7 cells transiently transfected with GnRH receptors from different species (human, macaque, dog, rabbit, rat) or mutant GnRH receptors are prepared by bulk electroporation. COS-7 cells are obtained from American Type Cell Culture (Manassas, Va.) and are maintained in Dulbeccos's modified Eagle's medium (DMEM) (MediaTech Inc., Herndon, Va.) containing 10% fetal bovine serum, 10 mM HEPES, 2 mM L-glutamine, 1 mM sodium pyruvate, 50 U/mL penicillin, 50 μg/mL streptomycin. COS-7 cells are seeded in 500 cm^2 tissue culture plates and grown to confluency prior to cell transfection. […]
Consider `COc1cccc(F)c1N(C)C(=O)c1cc(-c2cnc(C(F)(F)F)cc2C#N)c(Cl)cc1OCCCC(=O)O` [34-26], for which the Ki (commonly the equilibrium dissociation constant of an inhibitor or competing ligand from its target) was no more than 100 nM. To `COc1cc(Cl)c(-c2cnc(C(F)(F)F)cc2C#N)cc1C(=O)N(C)c1ccccc1-c1cnco1` [39-12] belongs no more than 100 nM; to `COc1ccccc1N(C)C(=O)c1ccc(Cl)c(-c2cnc(C(N)=O)cc2C)c1` [24-2, 5-{2-chloro-5-[(2-methoxy-phenyl)-methyl-carbamoyl]-phenyl}-4-methyl-pyridine-2-carboxylic acid amide], no more than 100 nM; to `COc1cc(C)c(-c2cc(C(=O)N(C)c3cccc(Cl)c3OC)ccc2Cl)cn1` [2-45], no more than 100 nM.

Compound `CN(C(=O)c1cc(-c2cnc(C(F)(F)F)cc2C#N)c(Cl)cc1OCCCC(=O)O)c1ccccc1-c1cnco1` [34-15] yielded an inhibition constant Ki of no more than 100 nM. As for `COc1ccccc1N(C)C(=O)c1ccc(Cl)c(-c2ccc(C(F)(F)F)cc2C#N)c1` [2-53], the figure is no more than 100 nM; as for `COC(=O)CCCOc1cccc(C)c1N(C)C(=O)c1ccc(Cl)c(-c2cnc(Cl)cc2C)c1` [3-5], no more than 100 nM; as for `COc1ccccc1N(C)C(=O)c1cc(-c2cnc(C(F)(F)F)cc2C#N)c(Cl)cc1OCCCc1nnn[nH]1` [35-1, 4-Chloro-5-(4-cyano-6-trifluoromethyl-pyridin-3-yl)-N-(2-methoxy-phenyl)-N-methyl-2-[3-(1H-tetrazol-5-yl)-propoxy]-benzamide], no more than 100 nM. As for `COc1ccccc1N(C)C(=O)c1cc(-c2cnc(C(F)(F)F)cc2C#N)c(Cl)cc1OCCCC(=O)OC(C)OC(=O)OC(C)C` (stereo not drawn) [37-4, 4-{5-chloro-4-(4-cyano-6-trifluoromethyl-pyridin-3-yl)-2-[(2-methoxy-phenyl)-methyl-carbamoyl]-phenoxy}-butyric acid 1-isopropoxycarbonyloxy-ethyl ester], the Ki is no more than 100 nM. Compound `COc1ccccc1N(C)C(=O)c1ccc(Cl)c(-c2nc3ccccc3cc2C)c1` [2-79] came in with a Ki of no more than 100 nM. To `COc1ccccc1N(C)C(=O)c1cc(-c2cnc(C(F)(F)F)cc2C#N)c(Cl)cc1OCCN1CCC[C@@H]1C(=O)O` [49-2] belongs no more than 100 nM. With `Cc1cccc(C)c1N(C)C(=O)c1cc(-c2nc3ccccc3cc2C#N)c(Cl)cc1OCCCC(=O)O` [22-6], the Ki was no more than 100 nM.

For the compound `COc1cccc(N(C)C(=O)c2cc(-c3cnc(C(F)(F)F)cc3C#N)c(Cl)cc2OCCCC(=O)O)n1` [34-19], the Ki was no more than 100 nM. `Cc1cc(C(F)(F)F)nc(=O)n1-c1cc(C(=O)N(C)c2cccc(F)c2F)ccc1Cl` [30-13] displayed a Ki of no more than 100 nM.

Compound `COc1ccccc1N(C)C(=O)c1cc(-c2cnc(C(F)(F)F)cc2C#N)c(Cl)cc1OCCN(C)C(C)=O` [47-2] showed a Ki of no more than 100 nM. As for `COc1ccccc1N(C)C(=O)c1ccc(Cl)c(-c2cnc(C)cc2C)c1` [2-9], the figure is no more than 100 nM. As for `Cc1cc(C#N)ncc1-c1cc(C(=O)N(C)c2ccccc2CCCC(=O)O)ccc1Cl` [14-3], the figure is no more than 100 nM; as for `COc1cc(Cl)c(-c2cnc(C(F)(F)F)cc2C#N)cc1C(=O)N(C)c1ccccc1` [39-7], no more than 100 nM; as for `COc1ccccc1N(C)C(=O)c1ccc(Cl)c(-c2cnc(Cl)cc2Cl)c1` [2-3], no more than 100 nM. In turn, `CN(C)CCOc1ccccc1N(C)C(=O)c1ccc(Cl)c(-c2cnc(Cl)cc2Cl)c1` [7-1, 4-Chloro-3-(4,6-dichloro-pyridin-3-yl)-N-[2-(2-dimethylamino-ethoxy)-phenyl]-N-methyl-benzamide] yielded a Ki of no more than 100 nM.

Take `COc1c(Cl)cccc1N(C)C(=O)c1cc(-c2cnc(C(F)(F)F)cc2C#N)c(Cl)cc1OCCCC(=O)O` [34-6]: the inhibitory constant (Ki) is no more than 100 nM. To `COc1cccc(C)c1N(C)C(=O)c1cc(-c2cnc(C(F)(F)F)cc2C#N)c(Cl)cc1OCCCC(=O)O` [22-1, 4-{5-Chloro-4-(4-cyano-6-trifluoromethyl-pyridin-3-yl)-2-[(2-methoxy-6-methyl-phenyl)-methyl-carbamoyl]-phenoxy}-butyric acid] belongs no more than 100 nM; to `Cc1cc(C#N)ncc1-c1cc(C(=O)N(C)c2c(C)cccc2OCCCC(=O)O)ccc1Cl` [4-8], no more than 100 nM. The compound `Cc1cc(Cl)cnc1-c1cc(C(=O)N(C)c2c(C)cccc2C)ccc1Cl` [2-63] displayed a Ki of no more than 100 nM. `COc1cc(Cl)c(-c2cnc(C(F)(F)F)cc2C#N)cc1C(=O)N(C)c1c(F)cccc1F` [39-6] returned a Ki of no more than 100 nM. `CCOC(=O)CCCOc1cc(Cl)c(-c2cnc(C(F)(F)F)cc2C#N)cc1C(=O)N(C)c1ccccc1OC` [43-1, 4-{5-Chloro-4-(4-cyano-6-trifluoromethyl-pyridin-3-yl)-2-[(2-methoxy-phenyl)-methyl-carbamoyl]-phenoxy}-butyric acid ethyl ester] showed an inhibition constant (Ki) of no more than 100 nM.

As to `COC(=O)CCCOc1ccccc1N(C)C(=O)c1ccc(Cl)c(-c2cnc(C(F)(F)F)cc2C#N)c1` [3-10], the Ki was no more than 100 nM. `COc1ccccc1N(C)C(=O)c1cc(-c2cnc(C(F)(F)F)cc2C#N)c(Cl)cc1OCCCn1cncn1` [42-13] registered a Ki of no more than 100 nM. As for `COc1cc(Cl)c(-c2cnc(C(F)(F)F)cc2C#N)cc1C(=O)N(C)c1c(C)cccc1C` [39-1, 4-Chloro-5-(4-cyano-6-trifluoromethyl-pyridin-3-yl)-N-(2,6-dimethyl-phenyl)-2-methoxy-N-methyl-benzamide], the figure is no more than 100 nM. As for `COc1ccccc1N(C)C(=O)c1cc(-c2cnc(C(F)(F)F)cc2C#N)c(Cl)cc1OCCCC(=O)OC(C)OC(=O)OC1CCCCC1` (stereo not drawn) [37-3, 4-{5-chloro-4-(4-cyano-6-trifluoromethyl-pyridin-3-yl)-2-[(2-methoxy-phenyl)-methyl-carbamoyl]-phenoxy}-butyric acid 1-cyclohexyloxycarbonyloxy-ethyl ester], the figure is no more than 100 nM; as for `COc1ccccc1N(C)C(=O)c1cc(-c2cnc(C(F)(F)F)cc2C#N)c(Cl)cc1OCCN(C)C(=O)C(F)(F)F` [47-5], no more than 100 nM. Compound `Cc1cc(Cl)ncc1-c1cc(C(=O)N(C)c2ccccc2C)ccc1Cl` [2-18] gave a Ki of no more than 100 nM. To `Cc1cccc(OCCC(=O)O)c1N(C)C(=O)c1ccc(Cl)c(-c2cnc(C(F)(F)F)cc2C#N)c1` [11-7] belongs no more than 100 nM; to `Cc1cc(C#N)ncc1-c1cc(C(=O)N(C)c2ccccc2OCCC(=O)O)ccc1Cl` [11-1, 3-(2-{[4-Chloro-3-(6-cyano-4-methyl-pyridin-3-yl)-benzoyl]-methyl-amino}-phenoxy)-propionic acid], no more than 100 nM; to `Cc1cc(C#N)ncc1-c1cc(C(=O)N(C)c2c(C)cccc2OCCCO)ccc1Cl` [9-5], no more than 100 nM. For `CN(C(=O)c1ccc(Cl)c(-c2cnc(C(F)(F)F)cc2C#N)c1)c1ccccc1OCCOc1ccccn1` [51-1, 4-Chloro-3-(4-cyano-6-trifluoromethyl-pyridin-3-yl)-N-methyl-N-{2-[2-(pyridin-2-yloxy)-ethoxy]-phenyl}-benzamide], the Ki is no more than 100 nM. In the case of `Cc1cc(Cl)ncc1-c1cc(C(=O)N(C)c2cccc(F)c2OCCCC(=O)O)ccc1Cl` [4-4], the inhibition constant Ki was no more than 100 nM.

For the compound `COc1ccccc1N(C)C(=O)c1cc(-c2cnc(C(F)(F)F)cc2C#N)c(Cl)cc1OCCCn1cccn1` [42-12], the Ki is no more than 100 nM. As for `COC(=O)CCCOc1cccc(C)c1N(C)C(=O)c1ccc(Cl)c(-c2cnc(C#N)cc2C)c1` [3-9], the figure is no more than 100 nM.
